Reference: patent publication US20190337924A1, “SUBSTITUTED HYDANTOIN AND THIOHYDANTOIN DERIVATIVES AS ANDROGEN RECEPTOR ANTAGONISTS” (Janssen Pharmaceutica NV, priority 2016, published 2019)
Counter-ions that a name gives are not always drawn. Like-named read-outs stand apart in the source and are kept apart here.

Assays:
Format in all cases: cell-based
[1] = biological target: T1, wild-type Androgen Receptor (AR-wt) (Homo sapiens, UniProt P10275); experiment: AR reporter assay, LNCaP-AR-wt AG (agonist mode); details: for Emax: read-out: LNCaP-AR-wt AG MAX % Stim
T1 construct: expressed in transfected cells; host or cells: LNCaP
T1 sequence (P10275 1-920): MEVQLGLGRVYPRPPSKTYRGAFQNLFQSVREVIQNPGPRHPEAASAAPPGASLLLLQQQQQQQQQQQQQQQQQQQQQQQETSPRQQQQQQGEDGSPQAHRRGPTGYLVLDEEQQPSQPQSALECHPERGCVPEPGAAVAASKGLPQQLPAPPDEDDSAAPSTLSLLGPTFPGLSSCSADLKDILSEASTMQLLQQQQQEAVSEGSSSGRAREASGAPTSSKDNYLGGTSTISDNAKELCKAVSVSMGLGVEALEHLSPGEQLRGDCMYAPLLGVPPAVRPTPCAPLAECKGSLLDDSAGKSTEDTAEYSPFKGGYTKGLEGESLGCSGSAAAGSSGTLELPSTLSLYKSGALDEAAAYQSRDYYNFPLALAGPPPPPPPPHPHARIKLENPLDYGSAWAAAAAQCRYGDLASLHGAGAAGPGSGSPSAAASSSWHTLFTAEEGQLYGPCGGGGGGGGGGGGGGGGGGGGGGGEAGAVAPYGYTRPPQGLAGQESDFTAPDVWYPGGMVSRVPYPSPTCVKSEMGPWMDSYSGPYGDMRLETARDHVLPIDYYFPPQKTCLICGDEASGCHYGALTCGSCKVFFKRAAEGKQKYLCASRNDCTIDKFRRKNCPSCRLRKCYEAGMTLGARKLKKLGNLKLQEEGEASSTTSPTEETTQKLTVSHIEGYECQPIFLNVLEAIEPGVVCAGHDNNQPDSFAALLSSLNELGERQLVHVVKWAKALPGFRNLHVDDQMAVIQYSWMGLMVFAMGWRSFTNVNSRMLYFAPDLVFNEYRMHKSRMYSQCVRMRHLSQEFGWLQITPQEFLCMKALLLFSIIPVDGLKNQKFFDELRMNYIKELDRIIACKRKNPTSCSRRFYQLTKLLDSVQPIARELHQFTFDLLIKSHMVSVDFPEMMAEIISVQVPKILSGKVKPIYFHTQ
Excerpt: LNCaP AR (cs) and LNCaP F876L luciferase cell lines were generated by transduction of each cell line (description of cell line generation Joseph J D, Lu N, Qian J, Sensintaffar J, Shao G, Brigham D, Moon M, Maneval E C, Chen I, Darimont B, Hager J H. A clinically relevant androgen receptor mutation confers resistance to second-generation antiandrogens enzalutamide and ARN-509. Cancer Discov 2013; 3:1020-1029) with an Androgen Response Element Firefly Luciferase lentiviral construct at an MOI (multiplicity of infection) of 50 following the manufacturer's instructions (Qiagen). A stable pooled-population cell line was generated using puromycin (Life Technologies) selection at 1:10,000 v/v. The protocol below was used for both cell lines and for testing of the compounds of Formula (I) of the present invention.
LNCaP cells were grown to about 80% confluence, media removed and cells rinsed in Hank's balanced salt solution prior to separation from the plate with 0.05% Trypsin EDTA. Cells were lifted and trypsin negated in complete CSS (charcoal stripped serum) culture media. CSS was maintained on cells for 24 h prior to assay, at which time 5,000 cells/[…] were seeded in Greiner 384 well White/White Tissue Culture Treated Plates and incubated for a further 1-2 hours at 37° C., 5% CO2, prior to addition of 10 μL of 4× Test Compounds (compounds described herein) or Assay Controls (all diluted in complete media containing 10% css). A further 10 μL of 4× R-1881 Agonist Challenge (antagonist assay) or Buffer (agonist assay) was then added (all diluted in complete media containing 10% css). Agonist challenge was at 400 pM for WT assay and 600 pM for F876L assay. Plates containing cells and compounds herein were incubated for a further 20-24 hours at 37° C., 5% CO2 before addition of 40 μL/well of Steady-Glo Luciferase Assay System Reagent (Promega#E2520). After 1 h, plates were read for luminescence on a BMG Pherastar.
((Sample RLU−Ave Low Control RLU[DMSO/Buffer])/(Ave High Control RLU [1 μM R-1881]—Ave Low Control RLU[DMSO/Buffer]))*100.
EC/IC50 calculations were achieved utilizing calculated RLU data and data fitting macros. Data were fit using least-squares methods to the following formula: […]
As used herein: • pIC50 is defined as −Log10(IC50 expressed in [Molar]). • pEC50 is defined as −Log10(EC50 expressed in [Molar]). • MAX % Inh is defined as the maximum % inhibition of R1881 control response observed for a compound over the tested concentration range. • MAX % Stim is defined as the maximum % stimulation (agonist response) observed for a compound over the tested concentration range. • LNCaP-AR-wt ANT refers to the reporter assay using LNCaP cells stably transfected with the Androgen Response Element Firefly Luciferase lentiviral construct and wild-type Androgen Receptor (AR-wt) in Antagonist mode. • LNCaP-AR-wt AG refers to the reporter assay using LNCaP cells stably transfected with the Androgen Response Element Firefly Luciferase lentiviral construct and wild-type Androgen Receptor (AR-wt) in Agonist mode. • LNCaP-AR-F876L ANT refers to the reporter assay using LNCaP cells stably transfected with the Androgen Response Element Firefly Luciferase lentiviral construct and F876L mutant Androgen Receptor (AR-F876L) in Antagonist mode. • LNCaP-AR-F876L AG refers to the reporter assay using LNCaP cells stably transfected with the Androgen Response Element Firefly Luciferase lentiviral construct and F876L mutant Androgen Receptor (AR-F876L) in Agonist mode.

[2] = tested on: LNCaP F876L; experiment: LNCaP Proliferation Assay, LNCaP F876L; details: Homo sapiens, 96 h, 1% CSS, 4 days, CellTiter-Glo, normalized to 0.1 nM R1881 stimulation
Method: (§1) LNCaP cells were expanded in RPMI 10% FBS in T150 flasks. The cells were dislodged with 0.25% Trypsin, washed in complete media, centrifuged (300 g, 3 min), and the supernatant aspirated. The cells were resuspended in RPMI phenol-red free media with 1% charcoal-stripped serum (CSS) and counted using a ViCELL (Beckman-Coulter). 7500 cells were added to each well of a white optical bottom 384-well plate and incubated for 2 days at 37° C. 5% CO2. Compound dilutions were prepared in RPMI CSS using 50 mM stock solutions and added to the cells either alone (agonist mode) or in combination with 0.1 nM R1881 (antagonist mode). The plates were incubated for 4 days, followed by addition of CellTiter-Glo Luminescent Cell Viability kit reagent (Promega). The plates were placed on a shaker at 3000 rpm for 10 minutes and then read on an EnVision plate reader (Perkin Elmer) using Luminescence assay default settings. The data was analyzed, normalized to 0.1 nM R1881 stimulation, and plotted in GraphPad Prism.

[3] = tested on: LNCaP WT; experiment: LNCaP Proliferation Assay, LNCaP WT; details: Homo sapiens, 96 h, 1% CSS, 4 days, CellTiter-Glo, normalized to 0.1 nM R1881 stimulation
Method: as §1

Compound | EC50 [1] [µM] | Emax [1] [%] | IC50 [2] [µM] | IC50 [3] [µM] | EC50 ([1]; agonist mode (buffer, no R-1881), -Log10(EC50 in Molar), read-out: LNCaP-AR-wt AG pEC50 (converted)) [µM]
CC1(C)C(=O)N(c2ccc(C#N)c(C(F)(F)F)c2)C(=S)N1c1ccc(OC2CCNCC2)cc1 [Compound 1, 4-(4,4-Dimethyl-5-oxo-3-(4-(piperidin-4-yloxy)phenyl)-2-thioxoimidazolidin-1-yl)-2-(trifluoromethyl)benzonitrile] | > 15.1 | 0.6 |  |  | 
CN1CCC(Oc2ccc(N3C(=S)N(c4ccc(C#N)c(C(F)(F)F)c4)C(=O)C3(C)C)cc2)CC1 [Compound 2, 4-(4,4-Dimethyl-3-(4-((1-methylpiperidin-4-yl)oxy)phenyl)-5-oxo-2-thioxoimidazolidin-1-yl)-2-(trifluoromethyl)benzonitrile hydrochloride] | > 15.1 | -0.2 | 1.31 | 1.37 | 
CC1(C)C(=O)N(c2ccc(C#N)c(C(F)(F)F)c2)C(=S)N1c1ccc(OC2CCNCC2)nc1 [Compound 3, 4-(4,4-Dimethyl-5-oxo-3-(6-(piperidin-4-yloxy)pyridin-3-yl)-2-thioxoimidazolidin-1-yl)-2-(trifluoromethyl)benzonitrile hydrochloride] | > 15.1 | 0.5 |  |  | 
CN1CCC(Oc2ccc(N3C(=S)N(c4ccc(C#N)c(C(F)(F)F)c4)C(=O)C3(C)C)cn2)CC1 [Compound 4, 4-(4,4-Dimethyl-3-(6-((1-methylpiperidin-4-yl)oxy)pyridin-3-yl)-5-oxo-2-thioxoimidazolidin-1-yl)-2-(trifluoromethyl)benzonitrile hydrochloride] | > 15.1 | 0.1 | 0.85 | 0.46 | 
CN1CCC(Oc2ncc(N3C(=S)N(c4ccc(C#N)c(C(F)(F)F)c4)C(=O)C3(C)C)cn2)CC1 [Compound 6, 4-(4,4-Dimethyl-3-(2-((1-methylpiperidin-4-yl)oxy)pyrimidin-5-yl)-5-oxo-2-thioxoimidazolidin-1-yl)-2-(trifluoromethyl)benzonitrile] | > 15.1 | 0.8 |  |  | 
CN1CCC(Oc2ccc(N3C(=S)N(c4ccc(C#N)c(Cl)c4)C(=O)C3(C)C)cc2)CC1 [Compound 8, 2-Chloro-4-(4,4-dimethyl-3-(4-((1-methylpiperidin-4-yl)oxy)phenyl)-5-oxo-2-thioxoimidazolidin-1-yl)benzonitrile hydrochloride] | > 15.1 | 0.1 |  |  | 
CC1(C)C(=O)N(c2ccc(C#N)c(Cl)c2)C(=S)N1c1ccc(OC2CCNCC2)nc1 [Compound 9, 2-Chloro-4-(4,4-dimethyl-5-oxo-3-(6-(piperidin-4-yloxy)pyridin-3-yl)-2-thioxoimidazolidin-1-yl)benzonitrile hydrochloride] | > 15.1 | -0.2 |  |  | 
N#Cc1ccc(N2C(=O)C3(CCC3)N(c3ccc(OC4CCNCC4)cc3)C2=S)cc1C(F)(F)F [Compound 11, 4-(8-Oxo-5-(4-(piperidin-4-yloxy)phenyl)-6-thioxo-5,7-diazaspiro[3.4]octan-7-yl)-2-(trifluoromethyl)benzonitrile] | > 15.1 | 0.1 |  |  | 
CN1CCC(Oc2ccc(N3C(=S)N(c4ccc(C#N)c(C(F)(F)F)c4)C(=O)C34CCC4)cc2)CC1 [Compound 12, 4-(5-(4-((1-Methylpiperidin-4-yl)oxy)phenyl)-8-oxo-6-thioxo-5,7-diazaspiro[3.4]octan-7-yl)-2-(trifluoromethyl)benzonitrile] | > 15.1 | 0.4 |  |  | 
N#Cc1ccc(N2C(=O)C3(CCC3)N(c3ccc(OC4CCNCC4)nc3)C2=S)cc1C(F)(F)F [Compound 13, 4-(8-Oxo-5-(6-(piperidin-4-yloxy)pyridin-3-yl)-6-thioxo-5,7-diazaspiro[3.4]octan-7-yl)-2-(trifluoromethyl)benzonitrile hydrochloride] | > 15.1 | 0.5 |  | 109 | 
CN1CCC(Oc2ncc(N3C(=S)N(c4ccc(C#N)c(C(F)(F)F)c4)C(=O)C34CCC4)cn2)CC1 [Compound 16, 4-(5-(2-((1-Methylpiperidin-4-yl)oxy)pyrimidin-5-yl)-8-oxo-6-thioxo-5,7-diazaspiro[3.4]octan-7-yl)-2-(trifluoromethyl)benzonitrile] | > 15.1 | -0.1 |  |  | 
Cc1cc(N2C(=O)C3(CCC3)N(c3ccc(OC4CCN(C)CC4)cc3)C2=S)ccc1C#N [Compound 17, 2-Methyl-4-(5-(4-((1-methylpiperidin-4-yl)oxy)phenyl)-8-oxo-6-thioxo-5,7-diazaspiro[3.4]octan-7-yl)benzonitrile] |  | -0.1 |  |  | > 15.1
N#Cc1ccc(N2C(=O)C3(CCC3)N(c3ccc(OC4CCNCC4)nc3)C2=S)cc1Cl [Compound 23, 2-Chloro-4-(8-oxo-5-(6-(piperidin-4-yloxy)pyridin-3-yl)-6-thioxo-5,7-diazaspiro[3.4]octan-7-yl)benzonitrile hydrochloride] | > 15.1 | 0.9 |  | 3.19 | 
CN1CCC(Oc2ccc(N3C(=S)N(c4ccc(C#N)c(Cl)c4)C(=O)C34CCC4)cn2)CC1 [Compound 24, 2-Chloro-4-(5-(6-((1-methylpiperidin-4-yl)oxy)pyridin-3-yl)-8-oxo-6-thioxo-5,7-diazaspiro[3.4]octan-7-yl)benzonitrile hydrochloride] | > 15.1 | 0.3 |  |  | 
